We go through 10 compounds from PubChem BioAssay (NCI).

Among the test systems are SF-539 CNS; SK-OV-3 ovarian; MALME-3M melanoma; HL-60(TB) leukemia; SNB-19 CNS; LOX IMVI melanoma; SN12C renal; HCT-116 colon; TK-10 renal; SK-MEL-5 melanoma.
Holding throughout (experiment): DTP human tumour cell line panel, 48 h

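The compound was tested at five concentrations on cells cultured in 96-well plates, with a 48-hour exposure period. GI50 marks 50% less growth. TGI is the concentration that stops growth completely.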

The term TGI denotes the concentration at which net growth stops. Turning to `COc1ccc(-c2cc(=O)c3c(OC)c(OC)c(OC)c(OC)c3o2)c(OC)c1`, the TGI is more than 100 µM with SF-539 CNS; more than 100 µM with SK-OV-3 ovarian; more than 100 µM with MALME-3M melanoma; more than 100 µM with HL-60(TB) leukemia; more than 100 µM in the test with SNB-19 CNS; 34.8 µM in the test on LOX IMVI melanoma. Moreover, the TGI is 62.6 µM with SN12C renal, 49.5 µM in the test with HCT-116 colon, more than 100 µM with TK-10 renal and 55.8 µM in the test on SK-MEL-5 melanoma.
Consider `C=CC1=C(C)C2=NC1=CC1=NC(=CC3=C(C)C4=C(O)C(C(=O)OC)C(=C5NC(=C2)C(C)C5CCC(=O)OC)C4=N3)C(CC)=C1C` (stereo not given), for which the TGI with SF-539 CNS, with SK-OV-3 ovarian, in the test with MALME-3M melanoma, in the test on HL-60(TB) leukemia, in the test on SNB-19 CNS and with LOX IMVI melanoma was more than 100 µM in each case. In addition, the TGI with SN12C renal, in the test with HCT-116 colon, in the test on TK-10 renal and in the test with SK-MEL-5 melanoma was more than 100 µM in each case.
In general, GI50 refers to the concentration giving 50% growth inhibition. Regarding `COc1ccc2c(c1)/C(=C/c1cc(OC)c(OC)c(OC)c1)C(=O)N2C`, the GI50 in the test with SF-539 CNS was 2.21 µM; with SK-OV-3 ovarian, 3.2 µM; in the test with MALME-3M melanoma, 2.87 µM; in the test with HL-60(TB) leukemia, 1.46 µM; with SNB-19 CNS it was 3.19 µM; in the test with LOX IMVI melanoma, 2.32 µM. Moreover, the GI50 is 3.44 µM with SN12C renal, 2.56 µM in the test on HCT-116 colon, 3.56 µM in the test on TK-10 renal and 2.76 µM with SK-MEL-5 melanoma. For the same compound, the TGI with SF-539 CNS was 5.92 µM; with SK-OV-3 ovarian it was 12.5 µM; in the test with MALME-3M melanoma it was more than 29.2 µM; in the test with HL-60(TB) leukemia, 5.28 µM; in the test on SNB-19 CNS it was more than 27.7 µM; in the test on LOX IMVI melanoma it was 11.8 µM. Further, the TGI was more than 44.5 µM in the test on SN12C renal, 13.3 µM in the test with HCT-116 colon, more than 31.6 µM in the test on TK-10 renal and 12.6 µM in the test with SK-MEL-5 melanoma.
Consider `CCOC(=O)/C(=C\c1ccc[nH]1)C(=O)c1ccccc1`, for which the TGI with SF-539 CNS, in the test with SK-OV-3 ovarian, with MALME-3M melanoma, in the test with HL-60(TB) leukemia, in the test with SNB-19 CNS and in the test on LOX IMVI melanoma was more than 100 µM each time. Besides, the TGI with SN12C renal, in the test with HCT-116 colon, with TK-10 renal and in the test with SK-MEL-5 melanoma was more than 100 µM in each case.
`OCC(O)C(O)C(O)/C=N/Nc1nc2ccccc2nc1-c1ccccc1` (stereo not given): the GI50 is 20.5 µM in the test with SF-539 CNS; more than 100 µM with SK-OV-3 ovarian; more than 100 µM in the test on MALME-3M melanoma; 5.15 µM with HL-60(TB) leukemia; more than 100 µM with SNB-19 CNS; 72.2 µM in the test on LOX IMVI melanoma. Besides, the GI50 with SN12C renal is more than 100 µM; in the test on HCT-116 colon it was more than 100 µM; in the test with TK-10 renal, more than 100 µM; with SK-MEL-5 melanoma, 48.5 µM. The TGI in the test with SF-539 CNS, in the test on SK-OV-3 ovarian, in the test with MALME-3M melanoma, with HL-60(TB) leukemia, in the test with SNB-19 CNS and in the test with LOX IMVI melanoma was more than 100 µM each time. Besides, the TGI in the test with SN12C renal, in the test on HCT-116 colon, in the test with TK-10 renal and with SK-MEL-5 melanoma was more than 100 µM in each case.
Take `NS(=O)(=O)c1ccc(NC(=O)c2cccc3cc4ccccc4nc23)cc1`: the TGI in the test with SF-539 CNS was more than 94.3 µM; with SK-OV-3 ovarian, more than 100 µM; in the test on MALME-3M melanoma, more than 100 µM; in the test with HL-60(TB) leukemia, more than 100 µM; with SNB-19 CNS it was more than 100 µM; in the test with LOX IMVI melanoma, more than 97.3 µM. The TGI in the test on SN12C renal is more than 100 µM; in the test with HCT-116 colon, more than 100 µM; in the test with TK-10 renal, more than 91.2 µM; in the test with SK-MEL-5 melanoma, more than 100 µM.
Regarding `Cc1c(N=Cc2ccc(N(CCC#N)CCC#N)cc2)c(=O)n(-c2ccccc2)n1C`, the TGI is 86.5 µM with SF-539 CNS; more than 100 µM in the test with SK-OV-3 ovarian; more than 100 µM in the test on MALME-3M melanoma; more than 100 µM in the test with HL-60(TB) leukemia; more than 100 µM in the test with SNB-19 CNS; more than 100 µM in the test on LOX IMVI melanoma. Besides, the TGI in the test on SN12C renal was more than 100 µM; with HCT-116 colon it was more than 100 µM; with TK-10 renal it was 62.1 µM; in the test with SK-MEL-5 melanoma, more than 100 µM.
Regarding `OCc1ccc(N(CCN2CCCC2)Cc2ccc(F)cc2)cc1Cl`, the GI50 in the test with SF-539 CNS was 16.4 µM; with SK-OV-3 ovarian, 7.88 µM; with MALME-3M melanoma, 22.3 µM; with HL-60(TB) leukemia, 25.1 µM; in the test on SNB-19 CNS it was 25 µM; in the test with LOX IMVI melanoma it was 15.6 µM. Further, the GI50 in the test on SN12C renal is 34.8 µM; with HCT-116 colon, 13.4 µM; with TK-10 renal, 15 µM; in the test with SK-MEL-5 melanoma it was 15 µM. In addition, the TGI was 31.2 µM in the test on SF-539 CNS; 31 µM in the test with SK-OV-3 ovarian; 40.2 µM in the test on MALME-3M melanoma; 64.8 µM with HL-60(TB) leukemia; 82.1 µM with SNB-19 CNS; 31.5 µM with LOX IMVI melanoma. In addition, the TGI in the test on SN12C renal was more than 100 µM; in the test with HCT-116 colon it was 37.3 µM; in the test with TK-10 renal, 34.8 µM; in the test with SK-MEL-5 melanoma it was 28.4 µM.
In the case of `CCOP(=O)(OCC)C1=NC=CC=CC1n1c(-c2ccccc2)nn(CC)c1=O` (stereo not given), the TGI in the test on SF-539 CNS, in the test with SK-OV-3 ovarian, in the test on MALME-3M melanoma, in the test on HL-60(TB) leukemia, with SNB-19 CNS and with LOX IMVI melanoma was more than 100 µM in each case. Also, the TGI in the test with SN12C renal, in the test on HCT-116 colon, in the test on TK-10 renal and in the test with SK-MEL-5 melanoma was more than 100 µM in each case.
Turning to `CCCN(CCSSCCNc1nc(N(C)O)nc(N(C)O)n1)c1nc(N(C)O)nc(N(C)O)n1`, the GI50 was 4.05 µM in the test with SF-539 CNS; 3.16 µM in the test with SK-OV-3 ovarian; 6.29 µM in the test on MALME-3M melanoma; 3.31 µM with HL-60(TB) leukemia; 4.15 µM in the test with SNB-19 CNS; 6.63 µM with LOX IMVI melanoma. Moreover, the GI50 in the test with SN12C renal is 9.84 µM; in the test on HCT-116 colon, 3.97 µM; with TK-10 renal it was 3.25 µM; in the test with SK-MEL-5 melanoma it was 8.65 µM. Further, the TGI with SF-539 CNS, with SK-OV-3 ovarian, in the test on MALME-3M melanoma, with HL-60(TB) leukemia, in the test on SNB-19 CNS and in the test with LOX IMVI melanoma was more than 100 µM in each case. For the same compound, the TGI with SN12C renal, with HCT-116 colon, in the test with TK-10 renal and with SK-MEL-5 melanoma was more than 100 µM each time.
